{
  "source": "patent US20130012519A1",
  "about": "“Biomarker Identifying the Reactivation of STAT3 After Src Inhibition” (BRISTOL-MYERS SQUIBB COMPANY, priority 2006, published 2013)",
  "key": {"STAT3 [1]": {"tested_on": "STAT3", "test": "Western blot / Bioplex phosphoprotein assay, STAT3 activation (pY705-STAT3) in cancer cell lines", "conditions": "for STAT3 inhibition on addition of JAK inhibitor to dasatinib: JAK inhibitor added to dasatinib; for effect of added inhibitor on STAT3 reactivation by dasatinib: Tu167 cells treated with dasatinib plus the inhibitor; for STAT3 inhibition / re-activation: Tu167 cells treated with one of three SFK inhibitors for 24 hours"}, "wild-type BCR-ABL": {"tested_on": "wild-type BCR-ABL", "conditions": "read-out: IC50 against wild-type BCR-ABL; Weisberg et al. 2006; cited from earlier work"}, "[2]": {"tested_on": "imatinib-resistant BCR-ABL mutants", "conditions": "number of mutants out of those tested; Weisberg et al. 2006; cited from earlier work"}, "c-Src": {"target": "T1, c-Src (Homo sapiens, UniProt P12931)", "T1 construct": "endogenous in cells; host or cells: fifteen human cancer cell lines (HNSCC incl. Tu167, NSCLC, mesothelioma, squamous skin cancer)", "T1 sequence (P12931 whole entry)": "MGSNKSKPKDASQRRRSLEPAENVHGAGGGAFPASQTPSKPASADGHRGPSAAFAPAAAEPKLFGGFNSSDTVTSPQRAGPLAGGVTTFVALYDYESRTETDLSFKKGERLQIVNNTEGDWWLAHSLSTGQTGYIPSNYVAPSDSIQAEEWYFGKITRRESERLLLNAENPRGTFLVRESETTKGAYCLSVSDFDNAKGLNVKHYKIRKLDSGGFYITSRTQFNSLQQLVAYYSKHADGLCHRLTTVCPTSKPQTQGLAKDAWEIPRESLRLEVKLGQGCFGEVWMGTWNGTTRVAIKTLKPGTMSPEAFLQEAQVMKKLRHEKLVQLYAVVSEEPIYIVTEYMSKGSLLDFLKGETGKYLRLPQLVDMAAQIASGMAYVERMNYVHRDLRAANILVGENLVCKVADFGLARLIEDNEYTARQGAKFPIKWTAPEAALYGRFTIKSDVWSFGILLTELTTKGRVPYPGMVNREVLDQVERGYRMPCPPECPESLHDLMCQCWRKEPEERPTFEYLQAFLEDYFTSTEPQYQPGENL", "test": "Western blot, c-Src inhibition in cancer cell lines", "assay_type": "cell-based", "conditions": "Tu167 cells treated with one of three SFK inhibitors for 24 hours"}, "AKT": {"tested_on": "AKT", "test": "Western blot, AKT downstream of Src in cancer cell lines", "assay_type": "cell-based, human"}, "STAT5": {"tested_on": "STAT5", "test": "Western blot, STAT5 downstream of Src in cancer cell lines", "assay_type": "cell-based, human"}, "FAK": {"tested_on": "FAK", "test": "Western blot, FAK downstream of Src in cancer cell lines", "assay_type": "cell-based, human"}, "IGF1R": {"target": "T2, IGF1R (Homo sapiens, UniProt P08069)", "T2 construct": "endogenous in cells", "T2 sequence (P08069 31-1367)": "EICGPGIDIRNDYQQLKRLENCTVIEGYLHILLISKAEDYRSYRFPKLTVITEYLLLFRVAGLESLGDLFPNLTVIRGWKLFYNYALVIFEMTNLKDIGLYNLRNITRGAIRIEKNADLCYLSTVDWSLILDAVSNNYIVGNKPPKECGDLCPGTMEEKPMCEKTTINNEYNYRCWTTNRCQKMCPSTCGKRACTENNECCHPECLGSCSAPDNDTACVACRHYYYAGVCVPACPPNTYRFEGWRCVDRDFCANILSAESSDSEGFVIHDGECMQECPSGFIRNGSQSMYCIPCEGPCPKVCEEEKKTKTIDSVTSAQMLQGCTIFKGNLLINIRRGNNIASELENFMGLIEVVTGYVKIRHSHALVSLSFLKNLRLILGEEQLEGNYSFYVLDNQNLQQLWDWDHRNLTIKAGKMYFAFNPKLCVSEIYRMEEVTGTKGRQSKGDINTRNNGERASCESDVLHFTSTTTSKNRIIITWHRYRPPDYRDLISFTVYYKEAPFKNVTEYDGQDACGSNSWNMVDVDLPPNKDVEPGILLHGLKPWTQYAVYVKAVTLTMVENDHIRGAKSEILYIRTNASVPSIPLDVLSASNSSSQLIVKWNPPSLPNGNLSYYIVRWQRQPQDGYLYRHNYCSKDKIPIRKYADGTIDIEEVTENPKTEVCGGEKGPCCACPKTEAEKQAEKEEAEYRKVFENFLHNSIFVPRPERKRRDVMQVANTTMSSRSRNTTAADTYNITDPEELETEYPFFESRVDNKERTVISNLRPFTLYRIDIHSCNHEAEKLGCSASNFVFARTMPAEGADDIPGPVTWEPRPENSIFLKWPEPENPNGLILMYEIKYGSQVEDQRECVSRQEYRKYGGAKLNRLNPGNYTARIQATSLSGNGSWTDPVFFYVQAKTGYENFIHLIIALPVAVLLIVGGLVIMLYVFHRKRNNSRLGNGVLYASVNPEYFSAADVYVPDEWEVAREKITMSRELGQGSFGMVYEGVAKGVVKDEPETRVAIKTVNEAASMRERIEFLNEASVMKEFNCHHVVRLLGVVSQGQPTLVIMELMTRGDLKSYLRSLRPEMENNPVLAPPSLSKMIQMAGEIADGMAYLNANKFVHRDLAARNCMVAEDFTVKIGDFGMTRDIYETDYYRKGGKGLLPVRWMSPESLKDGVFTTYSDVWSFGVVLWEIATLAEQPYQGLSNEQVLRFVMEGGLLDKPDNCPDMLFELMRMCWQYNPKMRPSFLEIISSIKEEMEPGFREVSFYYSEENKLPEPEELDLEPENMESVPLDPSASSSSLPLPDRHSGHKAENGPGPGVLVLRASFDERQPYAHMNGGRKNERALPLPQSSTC", "test": "IGF1R activation in cells", "assay_type": "cell-based", "conditions": "cells treated with dasatinib"}, "IL-6": {"tested_on": "IL-6", "test": "Cytokine profiling of cell media (25-plex bead kit), IL-6", "assay_type": "cell-based, human", "conditions": "100 nM dasatinib; serum-free and complete medium; 6 and 24 h"}, "IL-8": {"tested_on": "IL-8", "test": "Cytokine profiling of cell media (25-plex bead kit), IL-8", "assay_type": "cell-based, human", "conditions": "100 nM dasatinib; serum-free and complete medium; 6 and 24 h"}, "[3]": {"tested_on": "25 human cytokines/chemokines", "test": "Cytokine profiling of cell media (25-plex bead kit), other cytokines", "assay_type": "cell-based", "conditions": "100 nM dasatinib; serum-free and complete medium; 6 and 24 h"}, "MAPK [4]": {"tested_on": "MAPK", "conditions": "HNSCC cells treated with dasatinib; Johnson et al. 2005; cited from earlier work"}, "[5]": {"tested_on": "head and neck squamous carcinoma and non-small cell lung cancer cell lines", "conditions": "cited from earlier work"}, "STAT3 [6]": {"tested_on": "STAT3", "conditions": "panel of NSCLC cell lines with mutant or wild-type EGFR; literature; cited from earlier work"}, "MAPK [7]": {"tested_on": "MAPK", "test": "Western blot, MAPK activation in HNSCC cells", "conditions": "Tu167 cells treated with EGF"}, "[8]": {"conditions": "Tu167 cells, 100 nM dasatinib for the indicated times"}, "[9]": {"conditions": "all fifteen human cancer cell lines, 100 nM dasatinib, 0-24 h"}},
  "note": "Entries after “also recorded” stand apart in the source; their conditions may differ.",
  "data": [
    {"compound": "N#C/C(=C/c1ccc(O)c(O)c1)C(=O)NCc1ccccc1", "note": "[AG490]", "values": [
      {"measurement": "STAT3 inhibition on addition of JAK inhibitor to dasatinib", "setting": "STAT3 [1]", "value": "sustained inhibition of STAT3"}
    ]},
    {"compound": "Cc1cn(-c2cc(NC(=O)c3ccc(C)c(Nc4nccc(-c5cccnc5)n4)c3)cc(C(F)(F)F)c2)cn1", "note": "[AMN107]", "values": [
      {"measurement": "IC50", "setting": "wild-type BCR-ABL", "value": "[…]"},
      {"measurement": "imatinib-resistant BCR-ABL mutants against which significantly active", "setting": "[2]", "value": "32/33"}
    ]},
    {"compound": "COc1cccc(-c2cc(=O)c3ccccc3o2)c1N", "note": "[PD98059]", "values": [
      {"measurement": "effect of added inhibitor on STAT3 reactivation by dasatinib", "setting": "STAT3 [1]", "value": "no effect on STAT3 reactivation"}
    ]},
    {"compound": "Cc1ccc(-c2nn(C(C)(C)C)c3ncnc(N)c23)cc1", "note": "[PP1]", "values": [
      {"measurement": "c-Src inhibition", "setting": "c-Src", "value": "durable c-Src inhibition"},
      {"measurement": "STAT3 inhibition / re-activation", "setting": "STAT3 [1]; Western blot", "value": "not inhibited at 24 hours"}
    ]},
    {"compound": "COc1cc(Nc2c(C#N)cnc3cc(OCCCN4CCN(C)CC4)c(OC)cc23)c(Cl)cc1Cl", "note": "[SKI606]", "values": [
      {"measurement": "c-Src inhibition", "setting": "c-Src", "value": "durable c-Src inhibition"},
      {"measurement": "STAT3 inhibition / re-activation", "setting": "STAT3 [1]; Western blot", "value": "not inhibited at 24 hours"}
    ]},
    {"compound": "Cc1nc(Nc2ncc(C(=O)Nc3c(C)cccc3Cl)s2)cc(N2CCN(CCO)CC2)n1", "note": "[dasatinib, N-(2-chloro-6-methylphenyl)-2-[[6-[4-(2-hydroxyethyl)-1-piperazinyl]-2-methyl-4-pyrimidinyl]amino]-5-thiazolecarboxamide]", "values": [
      {"measurement": "AKT inhibition", "setting": "AKT; [8]", "value": "durable inhibition"},
      {"measurement": "AKT inhibition", "setting": "AKT; [9]", "value": "rapidly and durably inhibited"},
      {"measurement": "STATS inhibition", "setting": "STAT5; [8]", "value": "durable inhibition"},
      {"measurement": "STATS inhibition", "setting": "STAT5; [9]", "value": "rapidly and durably inhibited"},
      {"measurement": "FAK inhibition", "setting": "FAK; [8]", "value": "durable inhibition"},
      {"measurement": "FAK inhibition", "setting": "FAK; [9]", "value": "rapidly and durably inhibited"},
      {"measurement": "IGF1R activation", "setting": "IGF1R", "value": "nor did dasatinib affect IGF1R activation"},
      {"measurement": "IL-6 production", "setting": "IL-6", "value": "decreased"},
      {"measurement": "IL-8 production", "setting": "IL-8", "value": "decreased"},
      {"measurement": "increase of any of 25 cytokines / growth factors assayed", "setting": "[3]", "value": "No cytokine or growth factor assayed was significantly increased"},
      {"measurement": "production of IL-1beta, IL-12p40, IL-15, TNF-alpha, interferon-alpha, inducible protein-10, MIG, RANTES, IL-10", "setting": "[3]", "value": "unaffected"},
      {"measurement": "MAPK activation", "setting": "MAPK [4]", "value": "transiently activated"},
      {"measurement": "effects in cancer cell lines", "setting": "[5]", "value": "cytotoxicity, cell cycle arrest and apoptosis"},
      {"measurement": "effect of SFK inhibition on STAT3 activation", "setting": "STAT3 [6]", "value": "modest to absent"},
      {"measurement": "STAT3 activation (pSTAT3)", "setting": "STAT3 [1]; 14 of 15 solid tumor cell lines (HNSCC, NSCLC, mesothelioma, squamous skin carcinoma), 100 nM dasatinib, 0-24 h, Western blot", "value": "intitally inhibited but levels of pSTAT3 (Y105) returned to or above baseline by 24 h; also recorded: initially inhibited but reactivated by 24 h"},
      {"measurement": "STAT3 inhibition / re-activation", "setting": "STAT3 [1]; Western blot", "value": "not inhibited at 24 hours"},
      {"measurement": "STAT3 inhibition", "setting": "STAT3 [1]; Tu167 cells, 100 nM dasatinib for the indicated times, Western blot", "value": "not durably inhibited"},
      {"measurement": "STAT3 activation in fresh cells by conditioned medium", "setting": "STAT3 [1]; conditioned medium from Tu167 cells treated with dasatinib for 24 h transferred to fresh cells", "value": "did not observe any STAT3 activation"}
    ]},
    {"compound": "C#Cc1cccc(Nc2ncnc3cc(OCCOC)c(OCCOC)cc23)c1", "note": "[erlotinib]", "values": [
      {"measurement": "effect of added inhibitor on STAT3 reactivation by dasatinib", "setting": "STAT3 [1]", "value": "did not affect the STAT3 reactivation"}
    ]},
    {"compound": "CC(C)(C)c1nc2c3cc[nH]c(=O)c3c3cc(F)ccc3c2[nH]1", "note": "[pyridone 6]", "values": [
      {"measurement": "STAT3 inhibition on addition of JAK inhibitor to dasatinib", "setting": "STAT3 [1]", "value": "sustained inhibition of STAT3"}
    ]},
    {"compound": "EGF: epidermal growth factor, used to stimulate cells (NSDSECPLSHDGYCLHDGVCMYIEALDKYACNCVVGYIGERCQYRDLKWWELR; UniProt P01133 971-1023, looked up)", "values": [
      {"measurement": "MAPK activation on stimulation", "setting": "MAPK [7]", "value": "markedly activated"},
      {"measurement": "STAT3 activation on stimulation", "setting": "STAT3 [1]; Tu167 cells treated with EGF", "value": "slight increase in STAT3 activation"}
    ]},
    {"compound": "insulin-like growth factor", "values": [
      {"measurement": "STAT3 activation on stimulation", "setting": "STAT3 [1]; stimulation of cells with insulin-like growth factor", "value": "did not lead to significant activation of STAT3"}
    ]}
  ]
}
